Reference: PubChem BioAssay AID2060495 (Molecular Pharmacology Branch, DTP, NCI, 2025)

System: 521955-158-R2-J5-PDC complex spheroid viability
Assay: Anticancer human tumor 521955-158-R2-J5-PDC patient-derived pancreatic carcinoma cell line growth inhibition [GQUAD]
Conditions: for IC50: curve of first compound; for viability, T/C: stronger effect = lower value
Summary of the method: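 Viability of tumor cells grown as complex spheroids with endothelial and stromal cells, exposed to drug combinations. Top concentration at or near clinical Cmax (else 10 microM), diluted in half-log increments.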

[1] = second compound 0.0316 µM, first compound 0.0316 µM
[2] = second compound 0.0316 µM, first compound 0.1 µM
[3] = second compound 0.0316 µM, first compound 0.316 µM
[4] = second compound 0.0316 µM, first compound 1 µM
[5] = second compound 0.0316 µM, first compound 3.16 µM
[6] = second compound 0.0316 µM, first compound 10 µM
[7] = second compound 0.1 µM, first compound 0.0316 µM
[8] = second compound 0.1 µM, first compound 0.1 µM
[9] = second compound 0.1 µM, first compound 0.316 µM
[10] = second compound 0.1 µM, first compound 1 µM
[11] = second compound 0.1 µM, first compound 3.16 µM
[12] = second compound 0.1 µM, first compound 10 µM
[13] = second compound 0.316 µM, first compound 0.0316 µM
[14] = second compound 0.316 µM, first compound 0.1 µM
[15] = second compound 0.316 µM, first compound 0.316 µM
[16] = second compound 0.316 µM, first compound 1 µM
[17] = second compound 0.316 µM, first compound 3.16 µM
[18] = second compound 0.316 µM, first compound 10 µM
[19] = second compound 1 µM, first compound 0.0316 µM
[20] = second compound 1 µM, first compound 0.1 µM
[21] = second compound 1 µM, first compound 0.316 µM
[22] = second compound 1 µM, first compound 1 µM
[23] = second compound 1 µM, first compound 3.16 µM
[24] = second compound 1 µM, first compound 10 µM
[25] = second compound 3.16 µM, first compound 0.0316 µM
[26] = second compound 3.16 µM, first compound 0.1 µM
[27] = second compound 3.16 µM, first compound 0.316 µM
[28] = second compound 3.16 µM, first compound 1 µM
[29] = second compound 3.16 µM, first compound 3.16 µM
[30] = second compound 3.16 µM, first compound 10 µM
[31] = second compound 10 µM, first compound 0.0316 µM
[32] = second compound 10 µM, first compound 0.1 µM
[33] = second compound 10 µM, first compound 0.316 µM
[34] = second compound 10 µM, first compound 1 µM
[35] = second compound 10 µM, first compound 3.16 µM
[36] = second compound 10 µM, first compound 10 µM
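Also: spheroids exposed to agents for one week before reading.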
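For viability, T/C in this document: 100% = DMSO vehicle control viability.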

COc1cccc2c1C(=O)c1c(O)c3c(c(O)c1C2=O)CC(O)(C(=O)CO)CC3OC1CC(N)C(O)C(C)O1 (stereo unspecified) + Cc1[nH]c2ccc(F)cc2c1-c1nc2c3cccnc3c3ncccc3c2[nH]1
IC50 (second compound 0.0316 µM): 150 nM | IC50 (second compound 0.1 µM): 193 nM | IC50 (second compound 0.316 µM): 188 nM | IC50 (second compound 1 µM): 130 nM | IC50 (second compound 3.16 µM): 156 nM | IC50 (second compound 10 µM): 182 nM | viability, T/C [1]: 102% | viability, T/C [2]: 60.3% | viability, T/C [3]: 31.3% | viability, T/C [4]: 13.2% | viability, T/C [5]: 5.72% | viability, T/C [6]: 0.72% | viability, T/C [7]: 92.3% | viability, T/C [8]: 72.2% | viability, T/C [9]: 32.9% | viability, T/C [10]: 11% | viability, T/C [11]: 5.83% | viability, T/C [12]: 0.27% | viability, T/C [13]: 88.4% | viability, T/C [14]: 72.9% | viability, T/C [15]: 30% | viability, T/C [16]: 13.7% | viability, T/C [17]: 3.99% | viability, T/C [18]: 0.46% | viability, T/C [19]: 90.1% | viability, T/C [20]: 57.7% | viability, T/C [21]: 25.4% | viability, T/C [22]: 14.1% | viability, T/C [23]: 5.66% | viability, T/C [24]: 0.41% | viability, T/C [25]: 85.7% | viability, T/C [26]: 65.6% | viability, T/C [27]: 24.5% | viability, T/C [28]: 17.2% | viability, T/C [29]: 4.87% | viability, T/C [30]: 0.33% | viability, T/C [31]: 97.5% | viability, T/C [32]: 73.6% | viability, T/C [33]: 27.5% | viability, T/C [34]: 12.1% | viability, T/C [35]: 9.02% | viability, T/C [36]: 0.29%

Nc1ccn(C2OC(CO)C(O)C2(F)F)c(=O)n1 (stereo unspecified) + Cc1[nH]c2ccc(F)cc2c1-c1nc2c3cccnc3c3ncccc3c2[nH]1
IC50 (second compound 0.0316 µM): 421 nM | IC50 (second compound 0.1 µM): 424 nM | IC50 (second compound 0.316 µM): 436 nM | IC50 (second compound 1 µM): 449 nM | IC50 (second compound 3.16 µM): 485 nM | IC50 (second compound 10 µM): 467 nM | viability, T/C [1]: 78.3% | viability, T/C [2]: 83.1% | viability, T/C [3]: 61.9% | viability, T/C [4]: 13.8% | viability, T/C [5]: 10.5% | viability, T/C [6]: 7.49% | viability, T/C [7]: 77.1% | viability, T/C [8]: 79.2% | viability, T/C [9]: 58.9% | viability, T/C [10]: 22.3% | viability, T/C [11]: 10.8% | viability, T/C [12]: 6.82% | viability, T/C [13]: 89% | viability, T/C [14]: 75.3% | viability, T/C [15]: 64.1% | viability, T/C [16]: 15% | viability, T/C [17]: 10.6% | viability, T/C [18]: 7.06% | viability, T/C [19]: 88.9% | viability, T/C [20]: 80.4% | viability, T/C [21]: 61.6% | viability, T/C [22]: 25.1% | viability, T/C [23]: 9.92% | viability, T/C [24]: 7.24% | viability, T/C [25]: 92.8% | viability, T/C [26]: 93.3% | viability, T/C [27]: 66.4% | viability, T/C [28]: 21.8% | viability, T/C [29]: 12.9% | viability, T/C [30]: 10.2% | viability, T/C [31]: 109% | viability, T/C [32]: 104% | viability, T/C [33]: 61.7% | viability, T/C [34]: 25.3% | viability, T/C [35]: 8.99% | viability, T/C [36]: 7.65%

O=c1[nH]cc(F)c(=O)[nH]1 + Cc1[nH]c2ccc(F)cc2c1-c1nc2c3cccnc3c3ncccc3c2[nH]1
IC50 (second compound 0.0316 µM): 3720 nM | IC50 (second compound 0.1 µM): 4880 nM | IC50 (second compound 0.316 µM): 3090 nM | IC50 (second compound 1 µM): 2480 nM | IC50 (second compound 3.16 µM): 2530 nM | IC50 (second compound 10 µM): 2080 nM | viability, T/C [1]: 110% | viability, T/C [2]: 84.6% | viability, T/C [3]: 76% | viability, T/C [4]: 96.7% | viability, T/C [5]: 55% | viability, T/C [6]: 19.6% | viability, T/C [7]: 99.6% | viability, T/C [8]: 97.1% | viability, T/C [9]: 90.7% | viability, T/C [10]: 89.6% | viability, T/C [11]: 67% | viability, T/C [12]: 21.1% | viability, T/C [13]: 90.9% | viability, T/C [14]: 94.3% | viability, T/C [15]: 104% | viability, T/C [16]: 97.8% | viability, T/C [17]: 48.9% | viability, T/C [18]: 16.2% | viability, T/C [19]: 95.2% | viability, T/C [20]: 114% | viability, T/C [21]: 91.1% | viability, T/C [22]: 91.4% | viability, T/C [23]: 38.9% | viability, T/C [24]: 22% | viability, T/C [25]: 106% | viability, T/C [26]: 97.2% | viability, T/C [27]: 107% | viability, T/C [28]: 104% | viability, T/C [29]: 37.1% | viability, T/C [30]: 18.2% | viability, T/C [31]: 105% | viability, T/C [32]: 104% | viability, T/C [33]: 103% | viability, T/C [34]: 88.5% | viability, T/C [35]: 28% | viability, T/C [36]: 19.3%
